Measured values taken from patent US20140356383A1, “ADMINISTRATION OF AN ANTI-GCC ANTIBODY-DRUG CONJUGATE AND A DNA DAMAGING AGENT IN THE TREATMENT OF CANCER” (priority 2013, published 2014).

Experiments:
HT 29 GCC #18 cells = test: Direct cytotoxicity assay (WST), HT 29 GCC #18 cells; type: cell-based, human; details: auristatin ADCs
HT29-GCC#5 s.c. tumors = test: Pilot efficacy studies in HT29-GCC#5 s.c. tumors; type: in vivo; details: 150 μg/kg on a q3d×5 schedule, mice bearing HT29-GCC#5 tumors
Procedure: Studies were performed to determine efficacious conjugates and dosage regimens in mice bearing HT29-GCC#5 tumors. Mice were dosed with single or multiple doses. These studies determined that there was toxicity at too frequent dosing at higher levels of toxin conjugate (e.g., 150 μg/kg 5F9vcMMAF on a q3d×5 schedule). Another study determined that q14d×5 schedule was too infrequent in this model to allow some toxin conjugates to show significant efficacy vs. controls.

293-GCC#2 tumors = test: PK/PD study (phospho-histone H3) in 293-GCC#2 tumor bearing mice; type: in vivo
From the text: Phospho-histone H3 was detected by antibody (Upstate Biotechnology, now Millipore, Billerica, Mass.) staining of paraffin embedded sections of tumors.

293-GCC#2 s.c. tumors = test: Efficacy study with 5F9vcMMAF and 5F9-DMx in 293-GCC#2 s.c. tumors, q14d×5; type: in vivo; details: 293-GCC#2 bearing SCID mice, 75 and 150 μg/kg toxin
Procedure: 5F9-SPDB-DM4, 5F9-SMCC-DM1 and 5F9vcMMAF were tested for efficacy in the 293-GCC#2 tumor model at two doses (75 μg/kg and 150 […] toxin), on a q14d×5 schedule. Specifically, this study included vehicle-treated control, Sc209-DM1 (150 μg/kg DM1 eq), Sc209-DM4 (150 μg/kg DM4 eq), Sc209-vcMMAF (150 μg/kg MMAF eq), 5F9-DM1 (150 μg/kg DM1 eq), 5F9-DM1 (75 μg/kg DM1 eq), 5F9-DM4 (150 μg/kg DM4 eq), 5F9-DM4 (75 μg/kg DM4 eq), 5F9-vcMMAF (150 μg/kg MMAF eq), and 5F9-vcMMAF (75 μg/kg MMAF eq). Taconic female mice bearing 293-GCC#2 cells (10 mice per group) were used.
FIG. 1 depicts tumor growth in 293-GCC#2 bearing SCID mice treated with 5F9vc-MMAF, -DM1, and -DM4 on a q14d schedule. […] Therefore at these doses and schedules, 5F9-SPDB-DM4 had the greatest efficacious differential from its control conjugate.

293 GCC#2 tumors = test: Efficacy study with auristatin conjugates in 293 GCC#2 tumors, q7d×4; type: in vivo, SCID mice; details: for T/C: treatment/control
Procedure: 293 GCC#2 tumor-bearing SCID mice were treated with 5F9 conjugates with vc MMAE, vcMMAF or mcMMAF at three doses in comparison with 209 conjugates of these toxins or with free toxins or vehicle control. Doses were administered iv on a q7d×4 schedule. Tumors were harvested at days 3, 7, 10, 13 and 17. […] Table 18 provides a summary of the results (TGI=tumor growth inhibition, T/C=treatment/control, TGD=tumor growth delay, CR/PR=complete response/partial response; p value=measure to judge statistical significance, NS=not significant).

5F9-vcMMAF: 5F9 anti-GCC antibody conjugated with mc-vc-MMAF
LD 50 (nM) (HT 29 GCC #18 cells): >10,000 nM
toxicity at too frequent dosing (HT29-GCC#5 s.c. tumors): toxicity
Average % Tumor cells pH 3 positive (293-GCC#2 tumors; single iv dose 75 μg/kg, 1 hr): 4.235%
Average % Tumor cells pH 3 positive (293-GCC#2 tumors; single iv dose 75 μg/kg, 4 hr): 4.184%
Average % Tumor cells pH 3 positive (293-GCC#2 tumors; single iv dose 75 μg/kg, 8 hr): 4.93%
Average % Tumor cells pH 3 positive (293-GCC#2 tumors; single iv dose 75 μg/kg, 24 hr): 20.22%
Average % Tumor cells pH 3 positive (293-GCC#2 tumors; single iv dose 75 μg/kg, 48 hr): 9.921%
Average % Tumor cells pH 3 positive (293-GCC#2 tumors; single iv dose 75 μg/kg, 96 hr): 10.38%
Average % Tumor cells pH 3 positive (293-GCC#2 tumors; single iv dose 150 μg/kg, 1 hr): 3.466%
Average % Tumor cells pH 3 positive (293-GCC#2 tumors; single iv dose 150 μg/kg, 4 hr): 4.417%
Average % Tumor cells pH 3 positive (293-GCC#2 tumors; single iv dose 150 μg/kg, 8 hr): 8.594%
Average % Tumor cells pH 3 positive (293-GCC#2 tumors; single iv dose 150 μg/kg, 24 hr): 21.54%
Average % Tumor cells pH 3 positive (293-GCC#2 tumors; single iv dose 150 μg/kg, 48 hr): 15.16%
Average % Tumor cells pH 3 positive (293-GCC#2 tumors; single iv dose 150 μg/kg, 96 hr): 11.12%
efficacy (tumor growth, FIG. 1) (293-GCC#2 s.c. tumors): the most efficacious
TGI (293 GCC#2 tumors; 37.5 μg/kg iv q7d×4): 65.2
T/C (293 GCC#2 tumors; 37.5 μg/kg iv q7d×4): 0.35
TGD (293 GCC#2 tumors; 37.5 μg/kg iv q7d×4, tumor growth delay): 7.1
TGI (293 GCC#2 tumors; 75 μg/kg iv q7d×4): 88.5
T/C (293 GCC#2 tumors; 75 μg/kg iv q7d×4): 0.12
TGI (293 GCC#2 tumors; 150 μg/kg iv q7d×4): 97
T/C (293 GCC#2 tumors; 150 μg/kg iv q7d×4): 0.03
